Measured values from US10556865B2, “Synergistic herbicidal composition containing certain pyridine or pyrimidine carboxylic acids and certain cereal and rice herbicides” (Dow AgroSciences, LLC, priority 2007, dated 2020).

Columns and labels:
Format in all cases: in vivo
[1] = tested on: wild pansy (Viola tricolor L; VIOTR); assay: Postemergence herbicidal activity of mixtures in cereal crops (greenhouse, visual injury)
Method: (§1) The plants were grown for 7-36 days in a greenhouse with an approximate 14 hour photoperiod which was maintained at about 18° C. during the day and 17° C. during the night. Nutrients and water were added on a regular basis and supplemental lighting was provided with overhead metal halide 1000-Watt lamps as necessary. The plants were employed for testing when they reached the second or third true leaf stage.
(§2) Treatments consisted of compound (as listed in Tables 1 through 64) and a second cereal herbicide alone and in combination. […] Control plants were sprayed in the same manner with the solvent blank.
(§3) The treated plants and control plants were placed in a greenhouse as described above and watered by sub-irrigation to prevent wash-off of the test compounds. After 20-22 days, the condition of the test plants as compared with that of the control plants was determined visually and scored on a scale of 0 to 100 percent where 0 corresponds to no injury and 100 corresponds to complete kill.
(§4) The following equation was used to calculate the expected activity of mixtures containing two active ingredients, A and B: Expected=A+B−(A×B/100)

[2] = tested on: Canada thistle (Cirsium arvense L; CIRAR); assay: as above
Method: as §1, §2, §3, §4

[3] = tested on: bird's-eye speedwell (Veronica persica L; VERPE); assay: as above
Method: as §1, §2, §3, §4

[4] = tested on: Leptochloa chinensis (L.) NEES (LEFCH); assay: Postemergence herbicidal mixtures for weed control in direct seeded rice (greenhouse, visual % injury); conditions: for % Injury Ob: LEFCH
Cyperus iria L. (CYPIR) = assay: as above; conditions: CYPIR
[5] = tested on: black mustard (Brassica nigra L; BRSNI); assay: Postemergence herbicidal activity of mixtures in cereal crops (greenhouse, visual injury); conditions: Brassica, post-emergence, read-out: BRSNI Ob
Method: (§5) Seeds of the desired test plant species were planted in Sun Gro MetroMix® 306 planting mixture, which typically has a pH of 6.0 to 6.8 and an organic matter content of about 30 percent, in plastic pots with a surface area of 103.2 square centimeters (cm^2). When required to ensure good germination and healthy plants, a fungicide treatment and/or other chemical or physical treatment was applied. The plants were grown for 7-36 days in a greenhouse with an approximate 14 hour photoperiod which was maintained at about 18° C. during the day and 17° C. during the night. Nutrients and water were added on a regular basis and supplemental lighting was provided with overhead metal halide 1000-Watt lamps as necessary. The plants were employed for testing when they reached the second or third true leaf stage.
(§6) Treatments consisted of compound (as listed in Tables 1 through 64) and a second cereal herbicide alone and in combination. Weighed amounts of esters (methyl) or salts (TEA [triethylammonium], K [potassium]) of 4-amino-3-chloro -6-(4-chloro-2-fluoro-3-methoxyphenyl)pyridine-2-carboxylic acid (Compound A) or of 6-amino-5-chloro-2-(4-chloro-2-fluoro-3-methoxyphenyl)pyrimidine-4-carboxylic acid (Compound B), were placed in 25 milliliter (mL) glass vials and dissolved in a volume of 97:3 v/v acetone/DMSO to obtain 4.5 milligrams (mg) active ingredient (ai)/mL stock solutions. […] The concentrated stock solutions were diluted to 1.5 mg ai/mL with the addition of 2 volumes of an aqueous mixture containing acetone, water, isopropyl alcohol, DMSO, Agri-dex crop oil concentrate, and Triton® X-77 surfactant in a 64.7:26.0:6.7:2.0:0.7:0.01 v/v ratio. A dilution solution was prepared by mixing 1 volume of 97:3 v/v acetone/DMSO and 2 volumes of an aqueous mixture containing acetone, water, isopropyl alcohol, DMSO, Agri-dex crop oil concentrate, and Triton® X-77 surfactant in a 64.7:26.0:6.7:2.0:0.7:0.01 v/v ratio. Compound requirements are based upon a 12 mL application volume at a rate of 187 liters per hectare (L/ha). Spray solutions of the second cereal herbicide and experimental compound mixtures were prepared by adding the stock solutions to the appropriate amount of dilution solution to form 12 mL spray solution with active ingredients in two- and three-way combinations. Formulated compounds were applied to the plant material with an overhead Mandel track sprayer equipped with 8002E nozzles calibrated to deliver 187 L/ha over an application area of 0.503 square meters (m^2) at a spray height of 18 inches (43 cm) above average plant canopy. Control plants were sprayed in the same manner with the solvent blank.
as §3
(§7) Colby's equation was used to determine the herbicidal effects expected from the mixtures (Colby, S. R. 1967. Calculation of the synergistic and antagonistic response of herbicide combinations. Weeds 15:20-22.).
as §4

[6] = tested on: kochia (Kochia scoparia L; KCHSC); assay: as above; conditions: 450 g/ha alone
Method: as §5, §6, §3, §7, §4

[7] = tested on: chickweed (Stellaria media L; STEME); assay: as above; conditions: for pest or weed control at 140 g/ha: 140 g/ha alone
Method: as §5, §6, §3, §7, §4

[8] = tested on: scented mayweed (Matricaria chamomila L; MATCH); assay: as above
Method: as §1, §2, §3, §4

[9] = tested on: Ipomoea hederacea (L.) JACQ. (IPOHE); assay: Postemergence herbicidal mixtures for weed control in direct seeded rice (greenhouse, visual % injury after 3 weeks); conditions: IPOHE
[10] = tested on: downy brome (Bromus tectorum L; BROTE); assay: Postemergence herbicidal activity of mixtures in cereal crops (greenhouse, visual injury)
Method: as §5, §6, §3, §7, §4

[11] = tested on: annual bluegrass (Poa annua L; POAAN); assay: as above; conditions: 25 g/ha
Method: as §5, §6, §3, §7, §4

[12] = tested on: rigid ryegrass (Lolium rigidum L; LOLRI); assay: as above
Method: as §5, §6, §3, §7, §4

[13] = tested on: Italian ryegrass (Lolium multiflorum L; LOLMU); assay: as above; conditions: for LOLMU Ob: 25 g/ha
Method: as §5, §6, §3, §7, §4

[14] = tested on: wild oats (Avena fatua L; AVEFA); assay: as above; conditions: 25 g/ha, Table 17
Method: as §5, with “When required to ensure good germination and healthy plants, a fungicide treatment and/or other chemical or physical treatment was applied.” left out
(§8) Treatments consisted of compound (as listed in Tables 1 through 64) and a second cereal herbicide alone and in combination. […] The concentrated stock solutions were diluted to 1.5 mg ai/mL with the addition of 2 volumes of an aqueous mixture containing acetone, water, isopropyl alcohol, DMSO, Agri-dex crop oil concentrate, and Triton® X-77 surfactant in a 64.7:26.0:6.7:2.0:0.7:0.01 v/v ratio. A dilution solution was prepared by mixing 1 volume of 97:3 v/v acetone/DMSO and 2 volumes of an aqueous mixture containing acetone, water, isopropyl alcohol, DMSO, Agri-dex crop oil concentrate, and Triton® X-77 surfactant in a 64.7:26.0:6.7:2.0:0.7:0.01 v/v ratio. Compound requirements are based upon a 12 mL application volume at a rate of 187 liters per hectare (L/ha). […] Formulated compounds were applied to the plant material with an overhead Mandel track sprayer equipped with 8002E nozzles calibrated to deliver 187 L/ha over an application area of 0.503 square meters (m^2) at a spray height of 18 inches […] above average plant canopy. Control plants were sprayed in the same manner with the solvent blank.
as §3, §7, §4

[15] = tested on: windgrass (Apera spica-venti L; APESV); assay: as above; conditions: Apera spica-venti, post-emergence, read-out: APESV Ob
Method: as §5, with “When required to ensure good germination and healthy plants, a fungicide treatment and/or other chemical or physical treatment was applied.” left out
as §8, §3, §7, §4

[16] = tested on: wild buckwheat (Polygonum convolvulus L; POLCO); assay: as above
Method: as §5, §6, §3, §7, §4

[17] = tested on: annual ryegrass (Lolium multiflorum L; LOLMG); assay: as above; conditions: 125 g/ha, Table 13
Method: as §5, with “When required to ensure good germination and healthy plants, a fungicide treatment and/or other chemical or physical treatment was applied.” left out
as §8, §3, §7, §4

[18] = tested on: littleseed Canarygrass (Phalaris minor L; PHAMI); assay: as above; conditions: 125 g/ha, Table 13
Method: as §5, with “When required to ensure good germination and healthy plants, a fungicide treatment and/or other chemical or physical treatment was applied.” left out
as §8, §3, §7, §4

[19] = Stellaria media, post-emergence, read-out: STEME Ob

## COc1cc(OC)nc(NC(=O)NS(=O)(=O)N(C)S(C)(=O)=O)n1 [Amidosulfuron]
[1]; Viola tricolor, post-emergence, 10 g/ha, read-out: VIOTR Ob
  pest or weed control at 10 g/ha: 5%
[2]; 10 g/ha
  CIRAR Ob: 20%
[3]; Veronica persica, post-emergence, 10 g/ha, read-out: VERPE Ob
  pest or weed control at 10 g/ha: 5%

## CC1(C)CON(Cc2ccccc2Cl)C1=O [Clomazone]
[4]; 560 g/ha alone
  % Injury Ob: 40%
Cyperus iria L. (CYPIR); 560 g/ha alone
  % Injury Ob: 0%
Cyperus iria L. (CYPIR); 1120 g/ha alone
  % Injury Ob: 0%

## Cc1ccc(NC(=O)N(C)C)cc1Cl [Chlorotoluron]
[5]; 450 g/ha alone
  pest or weed control at 450 g/ha: 50%
[6]
  KCHSC Ob: 50%

## N#Cc1cc(Br)c(O)c(Br)c1 [Bromoxynil]
[5]; 70 g/ha
  pest or weed control at 70 g/ha: 50%
[7]; Stellaria media, post-emergence, 70 g/ha, read-out: STEME Ob
  pest or weed control at 70 g/ha: 0%
[8]; Matricaria, post-emergence, 70 g/ha, read-out: MATCH Ob
  pest or weed control at 70 g/ha: 0%

## COc1nc(C)nc(N(C)C(=O)NS(=O)(=O)c2ccccc2C(=O)O)n1 [Tribenuron]
[2]; 3.75 g/ha
  CIRAR Ob: 20%

## COc1nc(C)nc(=NC(=O)NS(=O)(=O)c2ccccc2C(=O)O)[nH]1 [Metsulfuron]
[2]; 3.75 g/ha
  CIRAR Ob: 20%

## C/C(=N\NC(=O)Nc1cc(F)cc(F)c1)c1ncccc1C(=O)O [Diflufenzopyr]
[4]; 8.75 g/ha alone
  % Injury Ob: 0%
Cyperus iria L. (CYPIR); 4.38 g/ha alone
  % Injury Ob: 10%
Cyperus iria L. (CYPIR); 8.75 g/ha alone
  % Injury Ob: 15%
Cyperus iria L. (CYPIR); 17.5 g/ha alone
  % Injury Ob: 20%
Cyperus iria L. (CYPIR); 35 g/ha alone
  % Injury Ob: 30%
[9]; 4.38 g/ha alone
  % Injury Ob: 10%
[9]; 8.75 g/ha alone
  % Injury Ob: 40%
[9]; 17.5 g/ha alone
  % Injury Ob: 60%
[9]; 35 g/ha alone
  % Injury Ob: 65%

## CCCOc1nn(C(=O)NS(=O)(=O)c2ccccc2C(=O)OC)c(=O)n1C [Propoxycarbazone-Na, methyl 2-[[[(4,5-dihydro-4-methyl-5-oxo-3-propoxy-1H-1,2,4-triazol-1-yl)carbonyl]amino]sulfonyl]benzoate, reference compound]
[10]; 25 g/ha, Table 10
  BROTE Ob: 92%
[11]; Table 10
  POAAN Ob: 7%
[11]; Table 17
  POAAN Ob: 5%
[12]; 25 g/ha, Table 17
  LOLRI Ob: 10%
[13]; Table 10
  LOLMU Ob: 17%
[13]; Table 17
  LOLMU Ob: 15%
[14]
  AVEFA Ob: 76%
[15]; 25 g/ha, Table 17
  pest or weed control at 25 g/ha: 90%
[8]; Matricaria, post-emergence, 15 g/ha, read-out: MATCH Ob
  pest or weed control at 15 g/ha: 50%
[3]; Veronica persica, post-emergence, 15 g/ha, read-out: VERPE Ob
  pest or weed control at 15 g/ha: 5%

## O=C(O)Cc1c[nH]c2ccccc12 [Indol-3-acetic acid]
[16]; 140 g/ha alone
  POLCO Ob: 0%
[7]; [19]
  pest or weed control at 140 g/ha: 0%
[8]; Matricaria, post-emergence, 140 g/ha alone, read-out: MATCH Ob
  pest or weed control at 140 g/ha: 0%

## COc1ncc(F)c2nc(S(=O)(=O)Nc3c(F)cccc3F)nn12 [Florasulam]
[1]; 1.25 g/ha
  VIOTR Ob: 10%
[1]; 1.3 g/ha alone
  VIOTR Ob: 53%
[2]; 1.25 g/ha
  CIRAR Ob: 20%
[8]; 1.3 g/ha alone
  MATCH Ob: 83%
[3]; 1.25 g/ha
  VERPE Ob: 5%
[3]; 1.3 g/ha alone
  VERPE Ob: 28%

## CC(C)N1C(=O)c2ccccc2NS1(=O)=O [Bentazone]
[16]; 120 g/ha
  POLCO Ob: 0%
[5]; 120 g/ha
  pest or weed control at 120 g/ha: 50%

## COC(=O)c1c(Cl)nn(C)c1S(=O)(=O)NC(=O)Nc1nc(OC)cc(OC)n1 [Halosulfuron-methyl]
[4]; alone 26 g/ha
  % Injury LEFCH Ob: 0%
[4]; alone 52 g/ha
  % Injury LEFCH Ob: 0%

## COc1cc(OC)nc(NC(=O)NS(=O)(=O)c2cc(CNS(C)(=O)=O)ccc2C(=O)O)n1 [Mesosulfuron, 2-[[[[(4,6-dimethoxy-2-pyrimidinyl)amino]carbonyl]amino]sulfonyl]-4-[[(methylsulfonyl)amino]-methyl]benzoic acid, reference compound]
[10]; 3.75 g/ha, Table 15
  BROTE Ob: 75%
[10]; 3.8 g/ha, Table 8
  BROTE Ob: 73%
[7]; Stellaria media, post-emergence, 3.75 g/ha, read-out: STEME Ob
  pest or weed control at 3.75 g/ha: 0%
[15]; 3.75 g/ha, Table 15
  pest or weed control at 3.75 g/ha: 93%
[2]; 3.75 g/ha
  CIRAR Ob: 20%
[8]; Matricaria, post-emergence, 3.75 g/ha, read-out: MATCH Ob
  pest or weed control at 3.75 g/ha: 5%

## O=C(O)CCCc1c[nH]c2ccccc12 [Indol-3-butyric acid]
[5]; 140 g/ha alone
  pest or weed control at 140 g/ha: 0%
[7]; [19]
  pest or weed control at 140 g/ha: 0%

## COc1nc(C)nc(NC(=O)NS(=O)(=O)c2ccsc2C(=O)O)n1 [Thifensulfuron]
[2]; 3.75 g/ha
  CIRAR Ob: 20%

## 2-[4,5-dihydro-4-methyl-4-(1-methylethyl)-5-oxo-1H-imidazol-2-yl]-4(or 5)-methylbenzoic acid [Imazamethabenz, reference compound]
[12]; 125 g/ha, Table 13
  LOLRI: 0%
[7]; 125 g/ha
  STEME Ob: 10%
[13]; 125 g/ha, Table 13
  LOLMU: 0%
[17]
  LOLMG Ob: 0%
[18]
  PHAMI: 0%
[8]; 125 g/ha
  MATCH Ob: 0%
